# In ChEMBL document CHEMBL4177616, “Potent anti-melanogenic activity and favorable toxicity profile of selected 4-phenyl hydroxycoumarins in the zebrafish model and the computational molecular modeling studies” (Bioorg Med Chem, 2017):
# Active and inactive are the calls of the source. The calls are words filed in the database; no cut-off is given here.
# Experiments:
# Tyrosinase (Danio rerio) = biological target: T1, Tyrosinase (Danio rerio) (UniProt A0A8M1PAD4); test: Inhibition of zebrafish embryo tyrosinase assessed as melanin production at 50 ug/ml after 48 hrs relative to control; values are per cent of control
# T1 sequence (whole entry): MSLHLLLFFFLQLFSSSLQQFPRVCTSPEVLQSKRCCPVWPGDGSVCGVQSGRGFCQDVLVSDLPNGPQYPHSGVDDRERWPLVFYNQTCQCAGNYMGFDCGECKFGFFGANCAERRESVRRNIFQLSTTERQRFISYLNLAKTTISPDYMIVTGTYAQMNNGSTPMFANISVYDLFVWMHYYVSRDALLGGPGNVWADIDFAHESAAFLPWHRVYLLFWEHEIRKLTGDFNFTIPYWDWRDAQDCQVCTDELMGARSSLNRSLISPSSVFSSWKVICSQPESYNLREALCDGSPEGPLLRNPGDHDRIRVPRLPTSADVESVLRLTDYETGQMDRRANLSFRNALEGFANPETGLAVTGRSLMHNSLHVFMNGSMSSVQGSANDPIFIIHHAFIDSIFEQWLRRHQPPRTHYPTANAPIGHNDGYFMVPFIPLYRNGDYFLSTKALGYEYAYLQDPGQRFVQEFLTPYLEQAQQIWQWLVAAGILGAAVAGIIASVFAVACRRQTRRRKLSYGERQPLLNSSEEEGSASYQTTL
# Danio rerio [1] = species on record: Danio rerio; test: Toxicity in wild type zebrafish embryos assessed as skeletal deformities at 2500 ug/ml treated for 96 hrs post fertilization starting from 6 hrs post fertilization by inverted microscopic analysis relative to control; type: organism-based; conditions: in vivo
# Danio rerio [2] = species on record: Danio rerio; test: Toxicity in wild type zebrafish embryos assessed as eyes at 2500 ug/ml treated for 96 hrs post fertilization starting from 6 hrs post fertilization by inverted microscopic analysis relative to control; type: organism-based; conditions: in vivo
# Danio rerio [3] = species on record: Danio rerio; test: Anti-melanogenic activity in wild type zebrafish 24 hrs post fertilization embryos assessed as decrease in body pigmentation at 100 ug/ml after 48 hrs; type: functional, organism-based
# Danio rerio [4] = species on record: Danio rerio; test: Toxicity in wild type zebrafish embryos assessed as unhatched embryo at 100 ug/ml treated for 96 hrs post fertilization starting from 6 hrs post fertilization by inverted microscopic analysis relative to control; type: organism-based; conditions: in vivo
# Danio rerio [5] = test: Toxicity in wild type zebrafish embryos assessed as pericardial edema at 1000 ug/ml treated for 96 hrs post fertilization starting from 6 hrs post fertilization by inverted microscopic analysis relative to control; type: organism-based; conditions: in vivo
# Danio rerio [6] = species on record: Danio rerio; test: Toxicity in wild type zebrafish embryos assessed as unhatched embryo at 1000 ug/ml treated for 96 hrs post fertilization starting from 6 hrs post fertilization by inverted microscopic analysis relative to control; type: organism-based; conditions: in vivo
# Danio rerio [7] = species on record: Danio rerio; test: Toxicity in wild type zebrafish embryos assessed as growth retardation at 500 ug/ml treated for 96 hrs post fertilization starting from 6 hrs post fertilization by inverted microscopic analysis relative to control; type: organism-based; conditions: in vivo
# Danio rerio [8] = species on record: Danio rerio; test: Toxicity in wild type zebrafish embryos assessed as eyes at 500 ug/ml treated for 96 hrs post fertilization starting from 6 hrs post fertilization by inverted microscopic analysis relative to control; type: organism-based; conditions: in vivo
# Neutrophil = test: Cytotoxicity against mpx:GFP transgenic zebrafish 24 hrs post fertilization embryo neutrophils assessed as loss in neutrophil at 2 to 2.5 mg/ml; type: cell-based, Danio rerio
# Danio rerio [9] = species on record: Danio rerio; test: Toxicity in wild type zebrafish embryos assessed as notochord at 2500 ug/ml treated for 96 hrs post fertilization starting from 6 hrs post fertilization by inverted microscopic analysis relative to control; type: organism-based; conditions: in vivo
# Danio rerio [10] = species on record: Danio rerio; test: Toxicity in wild type zebrafish embryos assessed as heart beat at 1000 ug/ml treated for 96 hrs post fertilization starting from 6 hrs post fertilization by inverted microscopic analysis relative to control; type: organism-based; conditions: in vivo
# Danio rerio [11] = species on record: Danio rerio; test: Toxicity in wild type zebrafish embryos assessed as heart beat at 2000 ug/ml treated for 96 hrs post fertilization starting from 6 hrs post fertilization by inverted microscopic analysis relative to control; type: organism-based; conditions: in vivo
# Danio rerio [12] = test: Toxicity in wild type zebrafish embryos assessed as pericardial edema at 500 ug/ml treated for 96 hrs post fertilization starting from 6 hrs post fertilization by inverted microscopic analysis relative to control; type: organism-based; conditions: in vivo
# Danio rerio [13] = species on record: Danio rerio; test: Toxicity in wild type zebrafish embryos assessed as growth retardation at 2000 ug/ml treated for 96 hrs post fertilization starting from 6 hrs post fertilization by inverted microscopic analysis relative to control; type: organism-based; conditions: in vivo
# Danio rerio [14] = species on record: Danio rerio; test: Toxicity in wild type zebrafish embryos assessed as blood circulation at 100 ug/ml treated for 96 hrs post fertilization starting from 6 hrs post fertilization by inverted microscopic analysis relative to control; type: organism-based; conditions: in vivo
# Danio rerio [15] = species on record: Danio rerio; test: Toxicity in wild type zebrafish embryos assessed as notochord at 500 ug/ml treated for 96 hrs post fertilization starting from 6 hrs post fertilization by inverted microscopic analysis relative to control; type: organism-based; conditions: in vivo
# Danio rerio [16] = species on record: Danio rerio; test: Toxicity in wild type zebrafish embryos assessed as normal embryo at 2000 ug/ml treated for 96 hrs post fertilization starting from 6 hrs post fertilization by inverted microscopic analysis relative to control; type: organism-based; conditions: in vivo
# Danio rerio [17] = test: Toxicity in wild type zebrafish embryos assessed as pericardial edema at 100 ug/ml treated for 96 hrs post fertilization starting from 6 hrs post fertilization by inverted microscopic analysis relative to control; type: organism-based; conditions: in vivo
# Danio rerio [18] = species on record: Danio rerio; test: Toxicity in wild type zebrafish embryos assessed as head malformation at 1000 ug/ml treated for 96 hrs post fertilization starting from 6 hrs post fertilization by inverted microscopic analysis relative to control; type: organism-based; conditions: in vivo
# Danio rerio [19] = test: Toxicity in wild type zebrafish embryos assessed as pericardial edema at 2500 ug/ml treated for 96 hrs post fertilization starting from 6 hrs post fertilization by inverted microscopic analysis relative to control; type: organism-based; conditions: in vivo
# Danio rerio [20] = species on record: Danio rerio; test: Toxicity in wild type zebrafish embryos assessed as blood circulation at 2000 ug/ml treated for 96 hrs post fertilization starting from 6 hrs post fertilization by inverted microscopic analysis relative to control; type: organism-based; conditions: in vivo
# Danio rerio [21] = species on record: Danio rerio; test: Toxicity in wild type zebrafish embryos assessed as otoliths at 100 ug/ml treated for 96 hrs post fertilization starting from 6 hrs post fertilization by inverted microscopic analysis relative to control; type: organism-based; conditions: in vivo
# Danio rerio [22] = species on record: Danio rerio; test: Toxicity in wild type zebrafish embryos assessed as teratogenic embryo at 2500 ug/ml treated for 96 hrs post fertilization starting from 6 hrs post fertilization by inverted microscopic analysis relative to control; type: organism-based; conditions: in vivo
# Danio rerio [23] = species on record: Danio rerio; test: Toxicity in wild type zebrafish embryos assessed as normal embryo at 100 ug/ml treated for 96 hrs post fertilization starting from 6 hrs post fertilization by inverted microscopic analysis relative to control; type: organism-based; conditions: in vivo
# Danio rerio [24] = species on record: Danio rerio; test: Toxicity in wild type zebrafish embryos assessed as eyes at 2000 ug/ml treated for 96 hrs post fertilization starting from 6 hrs post fertilization by inverted microscopic analysis relative to control; type: organism-based; conditions: in vivo
# Danio rerio [25] = species on record: Danio rerio; test: Toxicity in wild type zebrafish embryos assessed as blood circulation at 1000 ug/ml treated for 96 hrs post fertilization starting from 6 hrs post fertilization by inverted microscopic analysis relative to control; type: organism-based; conditions: in vivo
# Danio rerio [26] = species on record: Danio rerio; test: Toxicity in wild type zebrafish embryos assessed as skeletal deformities at 500 ug/ml treated for 96 hrs post fertilization starting from 6 hrs post fertilization by inverted microscopic analysis relative to control; type: organism-based; conditions: in vivo
# Danio rerio [27] = species on record: Danio rerio; test: Toxicity in wild type zebrafish embryos assessed as blood circulation at 2500 ug/ml treated for 96 hrs post fertilization starting from 6 hrs post fertilization by inverted microscopic analysis relative to control; type: organism-based; conditions: in vivo
# Danio rerio [28] = species on record: Danio rerio; test: Toxicity in wild type zebrafish embryos assessed as otoliths at 2500 ug/ml treated for 96 hrs post fertilization starting from 6 hrs post fertilization by inverted microscopic analysis relative to control; type: organism-based; conditions: in vivo
structure (smiles),measurement,setting,value
O=c1cc(-c2ccccc2)c2ccc(O)cc2o1,melanin content % of control,Tyrosinase (Danio rerio),24%
O=c1cc(CO)occ1O [KOJIC ACID],Activity,Danio rerio [1],98.33%
same,Activity,Danio rerio [2],0%
same,Activity,Danio rerio [3],inactive
same,Activity,Danio rerio [4],0%
same,Activity,Danio rerio [5],98.33%
same,Activity,Danio rerio [6],0%
same,Activity,Danio rerio [7],0%
same,Activity,Danio rerio [8],0%
same,Activity,Neutrophil,Toxic
same,Activity,Danio rerio [9],0%
same,Activity,Danio rerio [10],83.33%
same,Activity,Danio rerio [11],96.67%
same,Activity,Danio rerio [12],86.67%
same,Activity,Danio rerio [13],3.33%
same,Activity,Danio rerio [14],0%
same,Activity,Danio rerio [15],0%
same,Activity,Danio rerio [16],0%
same,Activity,Danio rerio [17],35%
same,Activity,Danio rerio [18],0%
same,Activity,Danio rerio [19],100%
same,Activity,Danio rerio [20],6.67%
same,Activity,Danio rerio [21],0%
same,Activity,Danio rerio [22],100%
same,Activity,Danio rerio [23],65%
same,Activity,Danio rerio [24],0%
same,Activity,Danio rerio [25],0%
same,Activity,Danio rerio [26],0%
same,Activity,Danio rerio [27],10%
same,Activity,Danio rerio [28],86.67%
